Results: patent publication US11065264B2, “Metal-olsalazine coordination polymers for medical applications” (THE REGENTS OF THE UNIVERSITY OF CALIFORNIA, priority 2016, dated 2021)

Columns and labels:
[1] = Content of active pharmaceutical ingredient by weight; format: physicochemical
[2] = treatment of ulcerative colitis; cited from earlier work
[3] = Olsalazine release from pressed pellets under simulated gastrointestinal conditions; format: physicochemical
Procedure: To evaluate the potential utility of Ca(H2olz).xH2O coordination solids in the treatment of ulcerative colitis (x=4, 2, and 0 for 1D, 2D, and 3D materials, respectively), each material was tested for drug release in comparison with Na2(H2olz), which is the salt used in the commercial formulation (available as Dipentum®). Each material was pressed into a pellet and exposed to solutions that mimic the pH of the stomach, small intestine, and colon. The pH and composition of the release medium was changed by addition of buffers in accordance to the expected transit times of a pill through the gastrointestinal tract: the first two hours were held at pH 1.1, the next two hours at pH 6.0, and the final six hours at pH 7.3. The vessels containing the pellet in release media were shaken at 60 rpm at 37° C. to simulate the motion and temperature of the body.
Sample pellets were prepared from pure material without binders or other agents typically used for pill preparation in the pharmaceutical industry. This was done in order to probe the properties of each material without influence from any excipients. Due to this method of preparation, however, pellets were susceptible to disintegration, which can accelerate the observed dissolution rates. […] The variability in pellet integrity likely contributed to the large observed standard deviation.
FIG. 3 is a graph of the release of olsalazine from Na2(H2olz) (circles) and Ca(H2olz).xH2O materials under simulated gastrointestinal conditions (x=4, 2, 0, denoted by squares, triangles, and diamonds, respectively). Error bars represent standard deviation across three independent data sets, where the quantity of olsalazine in solution was measured spectroscopically (λ=360 nm). The release media were changed throughout the study to emulate the typical pH and transit times of a pill passing through the stomach (pH 1.1, 2 h), small intestine (pH 6.0, 2 h), and colon (pH 7.3, 6 h).

## O=C(O)c1cc(/N=N/c2ccc(O)c(C(=O)O)c2)ccc1O [Na2(H2olz), olsalazine disodium]
[1]
  percentage of the active pharmaceutical ingredient (olsalazine) by weight: 79%
[2]
  patients discontinuing treatment because of diarrhea: over 10%
  patients experiencing diarrhea as a side effect: ≤ 35%
[3]; pellet without excipients, pH 1.1 2 h then pH 6.0 2 h, 37° C., 60 rpm, absorbance 360 nm
  amount of drug (olsalazine) released at the four-hour time point: over 90%
[3]; pellets of pure material without binders
  pellet disintegration in contact with the release solution: partially disintegrated
[3]; simulated gastrointestinal environment, pH 6.0 and above
  rate of olsalazine release/dissolution, Na2(H2olz) compared with Ca(H2olz) materials: dissolved more rapidly
